From BindingDB's records for doi:10.1016/j.bmcl.2017.04.009 (Vanderbilt University School of Medicine, 2017)

Molecular target: T1, Muscarinic acetylcholine receptor M4 (Homo sapiens, UniProt P08173)
T1 sequence (P08173 whole entry): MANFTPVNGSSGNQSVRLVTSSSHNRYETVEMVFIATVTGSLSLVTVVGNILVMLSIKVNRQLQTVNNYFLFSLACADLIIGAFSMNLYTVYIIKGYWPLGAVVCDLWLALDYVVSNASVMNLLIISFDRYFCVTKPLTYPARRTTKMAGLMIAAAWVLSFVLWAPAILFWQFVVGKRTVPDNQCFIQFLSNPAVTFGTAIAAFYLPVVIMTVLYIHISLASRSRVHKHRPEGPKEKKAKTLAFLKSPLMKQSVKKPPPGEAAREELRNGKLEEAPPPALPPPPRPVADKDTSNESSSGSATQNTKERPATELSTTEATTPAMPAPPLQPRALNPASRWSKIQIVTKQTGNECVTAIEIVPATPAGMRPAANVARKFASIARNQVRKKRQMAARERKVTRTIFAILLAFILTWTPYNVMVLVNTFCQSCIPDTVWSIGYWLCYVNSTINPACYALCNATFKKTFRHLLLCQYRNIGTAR
Assay: Antagonist activity at recombinant human M4 receptor expressed in CHO cells co-expressing Gqi5 by calcium mobilization assay

- IC50: 117 nM
Structure (SMILES): O=C(C1CCN(c2cc(Oc3ccc(Cl)cc3F)ncn2)CC1)N1CCc2ccccc2C1
